The results in this text go back to patent publication US12195482B1 (Arcus Biosciences, Inc., priority 2022, dated 2025).

The target of this assay is T1, p-AXL (Homo sapiens, UniProt P30530).
T1 construct: expressed in transfected cells; host or cells: HEK293T
T1 sequence (P30530 26-894): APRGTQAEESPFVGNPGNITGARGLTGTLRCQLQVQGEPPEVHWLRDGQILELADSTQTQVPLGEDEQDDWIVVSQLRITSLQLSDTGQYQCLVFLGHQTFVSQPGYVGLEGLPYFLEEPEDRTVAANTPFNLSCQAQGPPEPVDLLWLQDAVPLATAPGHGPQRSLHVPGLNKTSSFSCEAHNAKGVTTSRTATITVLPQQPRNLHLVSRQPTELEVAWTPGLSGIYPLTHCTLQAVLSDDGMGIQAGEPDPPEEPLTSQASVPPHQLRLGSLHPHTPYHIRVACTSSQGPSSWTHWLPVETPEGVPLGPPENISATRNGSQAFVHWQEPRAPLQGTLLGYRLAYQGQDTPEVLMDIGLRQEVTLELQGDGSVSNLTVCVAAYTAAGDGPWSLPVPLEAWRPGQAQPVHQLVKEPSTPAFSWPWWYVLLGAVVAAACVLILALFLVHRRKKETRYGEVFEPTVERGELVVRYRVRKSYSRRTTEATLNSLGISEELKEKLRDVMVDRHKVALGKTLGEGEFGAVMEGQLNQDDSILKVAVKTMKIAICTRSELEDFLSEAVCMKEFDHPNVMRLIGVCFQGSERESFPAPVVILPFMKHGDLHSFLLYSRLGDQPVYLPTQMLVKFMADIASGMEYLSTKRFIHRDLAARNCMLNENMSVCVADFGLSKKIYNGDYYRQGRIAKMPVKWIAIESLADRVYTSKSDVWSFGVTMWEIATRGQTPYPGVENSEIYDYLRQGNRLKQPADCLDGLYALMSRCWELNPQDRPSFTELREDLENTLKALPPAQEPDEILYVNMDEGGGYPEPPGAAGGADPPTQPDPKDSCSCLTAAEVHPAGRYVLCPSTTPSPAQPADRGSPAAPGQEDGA
As to the kind of experiment: Axl phosphorylation inhibition ELISA in HEK293T cells transfected with NanoLuc-tagged AXL. The note with it: 1 h compound incubation, media (OptiMEM). Format: cell-based. A digest of the protocol:
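HEK293T cells transiently transfected one day earlier with NanoLuc-tagged AXL were exposed to 22-point 2-fold compound dilutions for 1 h at 37° C (70,000 cells/well), then lysed. Lysates captured on anti-phospho-tyrosine coated plates for 2 h; bound p-AXL read by NanoLuc luminescence; IC50 from 4-parameter logistic fit.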
(In an ELISA, binding on a coated surface is turned into a signal by an enzyme label.)

SMILES strings stand for the structures.

For the compound `COc1cccnc1-c1ccc(-c2n[nH]c3ncc(-c4ccc5c(c4)CC[C@@H](N4C6COCC4C6)CC5)cc23)cc1` [Example 166, 6-[(7S)-2-{3-[4-(3-Methoxypyridin-2-yl)phenyl]-1H-pyrazolo[3,4-b]pyridin-5-yl}-6,7,8,9-tetrahydro-5H-benzo[7]annulen-7-yl]-3-oxa-6-azabicyclo[3.1.1]heptane], the IC50 is less than 100 nM.
`CN(C)C(=O)c1cccnc1-c1ccc(-c2n[nH]c3ncc(-c4ccc5c(c4)CC[C@@H](N4C6COCC4C6)CC5)cc23)cc1` [Example 167, N,N-Dimethyl-2-(4-{5-[(7S)-7-{3-oxa-6-azabicyclo[3.1.1]heptan-6-yl}-6,7,8,9-tetrahydro-5H-benzo[7]annulen-2-yl]-1H-pyrazolo[3,4-b]pyridin-3-yl}phenyl)pyridine-3-carboxamide] returned an IC50 of less than 100 nM.
The compound `c1ccc(-n2cc(-c3n[nH]c4ncc(-c5ccc6c(c5)CC[C@@H](N5C7COCC5C7)CC6)cc34)cn2)nc1` [Example 168, 6-[(7S)-2-{3-[1-(Pyridin-2-yl)-1H-pyrazol-4-yl]-1H-pyrazolo[3,4-b]pyridin-5-yl}-6,7,8,9-tetrahydro-5H-benzo[7]annulen-7-yl]-3-oxa-6-azabicyclo[3.1.1]heptane] returned an IC50 of 100 to 1000 nM.
In turn, `Cn1cnnc1-c1ccc(-c2n[nH]c3ncc(-c4ccc5c(c4)CC[C@@H](N4C6COCC4C6)CC5)cc23)cc1` [Example 169, 6-[(7S)-2-{3-[4-(4-Methyl-4H-1,2,4-triazol-3-yl)phenyl]-1H-pyrazolo[3,4-b]pyridin-5-yl}-6,7,8,9-tetrahydro-5H-benzo[7]annulen-7-yl]-3-oxa-6-azabicyclo[3.1.1]heptane] returned an IC50 of less than 100 nM.
`CN(C)C(=O)c1ccccc1-c1ccc(-c2c[nH]c3ncc(-c4ccc5c(c4)CC[C@@H](N4C6COCC4C6)CC5)cc23)cn1` [Example 170, N,N-Dimethyl-2-(5-{5-[(7S)-7-{3-oxa-6-azabicyclo[3.1.1]heptan-6-yl}-6,7,8,9-tetrahydro-5H-benzo[7]annulen-2-yl]-1H-pyrrolo[2,3-b]pyridin-3-yl}pyridin-2-yl)benzamide] displayed an IC50 of 100 to 1000 nM.
To `O=C(c1cccnc1-c1ccc(-c2c[nH]c3ncc(-c4ccc5c(c4)CC[C@@H](N4C6COCC4C6)CC5)cc23)cc1)N1CCCC1` [Example 171, 6-[(7S)-2-(3-{4-[3-(Pyrrolidine-1-carbonyl)pyridin-2-yl]phenyl}-1H-pyrrolo[2,3-b]pyridin-5-yl)-6,7,8,9-tetrahydro-5H-benzo[7]annulen-7-yl]-3-oxa-6-azabicyclo[3.1.1]heptane] belongs less than 100 nM.
To `Cc1cccnc1-c1ccc(-c2c[nH]c3ncc(-c4ccc5c(c4)CC[C@@](C)(N4CCC[C@H]4C)CC5)cc23)cc1` [Example 172, 3-Methyl-2-(4-{5-[(7S)-7-methyl-7-[(2R)-2-methylpyrrolidin-1-yl]-6,7,8,9-tetrahydro-5H-benzo[7]annulen-2-yl]-1H-pyrrolo[2,3-b]pyridin-3-yl}phenyl)pyridine] belongs less than 100 nM.
To `Cc1cccnc1-c1ccc(-c2c[nH]c3ncc(-c4ccc5c(c4)CC[C@@H](N4CCCC4)CC5)cc23)cc1` [Example 173, 3-Methyl-2-(4-{5-[(7S)-7-(pyrrolidin-1-yl)-6,7,8,9-tetrahydro-5H-benzo[7]annulen-2-yl]-1H-pyrrolo[2,3-b]pyridin-3-yl}phenyl)pyridine] belongs less than 100 nM; to `Cc1cncnc1-c1ccc(-c2n[nH]c3ncc(-c4ccc5c(c4)CC[C@@H](N4C6COCC4C6)CC5)cc23)cc1` [Example 174, 6-[(7S)-2-{3-[4-(5-Methylpyrimidin-4-yl)phenyl]-1H-pyrazolo[3,4-b]pyridin-5-yl}-6,7,8,9-tetrahydro-5H-benzo[7]annulen-7-yl]-3-oxa-6-azabicyclo[3.1.1]heptane], less than 100 nM; to `Cc1nccnc1-c1ccc(-c2n[nH]c3ncc(-c4ccc5c(c4)CC[C@@H](N4C6COCC4C6)CC5)cc23)cc1` [Example 175, 6-[(7S)-2-{3-[4-(3-Methylpyrazin-2-yl)phenyl]-1H-pyrazolo[3,4-b]pyridin-5-yl}-6,7,8,9-tetrahydro-5H-benzo[7]annulen-7-yl]-3-oxa-6-azabicyclo[3.1.1]heptane], less than 100 nM.
Compound `Cc1ccnnc1-c1ccc(-c2n[nH]c3ncc(-c4ccc5c(c4)CC[C@@H](N4C6COCC4C6)CC5)cc23)cc1` [Example 176, 6-[(7S)-2-{3-[4-(4-Methylpyridazin-3-yl)phenyl]-1H-pyrazolo[3,4-b]pyridin-5-yl}-6,7,8,9-tetrahydro-5H-benzo[7]annulen-7-yl]-3-oxa-6-azabicyclo[3.1.1]heptane] showed an IC50 of less than 100 nM.
As for `O=C1CCCN1c1cccnc1-c1ccc(-c2n[nH]c3ncc(-c4ccc5c(c4)CC[C@@H](N4C6COCC4C6)CC5)cc23)cc1` [Example 177, 1-[2-(4-{5-[(7S)-7-{3-Oxa-6-azabicyclo[3.1.1]heptan-6-yl}-6,7,8,9-tetrahydro-5H-benzo[7]annulen-2-yl]-1H-pyrazolo[3,4-b]pyridin-3-yl}phenyl)pyridin-3-yl]pyrrolidin-2-one], the figure is less than 100 nM; as for `c1cnc(-c2ccc(-c3c[nH]c4ncc(-c5ccc6c(c5)CC[C@@H](N5C7COCC5C7)CC6)cc34)cc2)c(C2CC2)c1` [Example 178, 6-[(7S)-2-{3-[4-(3-Cyclopropylpyridin-2-yl)phenyl]-1H-pyrrolo[2,3-b]pyridin-5-yl}-6,7,8,9-tetrahydro-5H-benzo[7]annulen-7-yl]-3-oxa-6-azabicyclo[3.1.1]heptane], less than 100 nM.
In turn, `c1cnc(-c2ccc(-c3n[nH]c4ncc(-c5ccc6c(c5)CC[C@@H](N5C7COCC5C7)CC6)cc34)cc2)c(C2CC2)c1` [Example 179, 6-[(7S)-2-{3-[4-(3-Cyclopropylpyridin-2-yl)phenyl]-1H-pyrazolo[3,4-b]pyridin-5-yl}-6,7,8,9-tetrahydro-5H-benzo[7]annulen-7-yl]-3-oxa-6-azabicyclo[3.1.1]heptane] gave an IC50 of 100 to 1000 nM.
The compound `COCCOc1cccnc1-c1ccc(-c2n[nH]c3ncc(-c4ccc5c(c4)CC[C@@H](N4C6COCC4C6)CC5)cc23)cc1` [Example 180, 6-[(7S)-2-(3-{4-[3-(2-Methoxyethoxy)pyridin-2-yl]phenyl}-1H-pyrazolo[3,4-b]pyridin-5-yl)-6,7,8,9-tetrahydro-5H-benzo[7]annulen-7-yl]-3-oxa-6-azabicyclo[3.1.1]heptane] had an IC50 of less than 100 nM.
As for `CCOc1cccnc1-c1ccc(-c2n[nH]c3ncc(-c4ccc5c(c4)CC[C@@H](N4C6COCC4C6)CC5)cc23)cc1` [Example 181, 6-[(7S)-2-{3-[4-(3-Ethoxypyridin-2-yl)phenyl]-1H-pyrazolo[3,4-b]pyridin-5-yl}-6,7,8,9-tetrahydro-5H-benzo[7]annulen-7-yl]-3-oxa-6-azabicyclo[3.1.1]heptane], the figure is 100 to 1000 nM; as for `CCc1cccnc1-c1ccc(-c2n[nH]c3ncc(-c4ccc5c(c4)CC[C@@H](N4C6COCC4C6)CC5)cc23)cc1` [Example 182, 6-[(7S)-2-{3-[4-(3-Ethylpyridin-2-yl)phenyl]-1H-pyrazolo[3,4-b]pyridin-5-yl}-6,7,8,9-tetrahydro-5H-benzo[7]annulen-7-yl]-3-oxa-6-azabicyclo[3.1.1]heptane], less than 100 nM.
As to `CCc1cccnc1-c1ccc(-c2c[nH]c3ncc(-c4ccc5c(c4)CC[C@@H](N4C6COCC4C6)CC5)cc23)cc1` [Example 183, 6-[(7S)-2-{3-[4-(3-Ethylpyridin-2-yl)phenyl]-1H-pyrrolo[2,3-b]pyridin-5-yl}-6,7,8,9-tetrahydro-5H-benzo[7]annulen-7-yl]-3-oxa-6-azabicyclo[3.1.1]heptane], the IC50 is less than 100 nM.
As for `Cc1cccnc1-c1ccc(-c2c[nH]c3ncc(-c4ccc5c(c4)CC[C@@H](N[C@H]4CCCOC4)CC5)cc23)cc1` [Example 186, (3S)—N-[(7S)-2-{3-[4-(3-Methylpyridin-2-yl)phenyl]-1H-pyrrolo[2,3-b]pyridin-5-yl}-6,7,8,9-tetrahydro-5H-benzo[7]annulen-7-yl]oxan-3-amine], the figure is 100 to 1000 nM.
As for `Cc1cccnc1-c1ccc(-c2c[nH]c3ncc(-c4ccc5c(c4)CC[C@@H](N4C[C@@H]6C[C@H]4CO6)CC5)cc23)cc1` [Example 187, (4S)-5-[(7S)-2-{3-[4-(3-Methylpyridin-2-yl)phenyl]-1H-pyrrolo[2,3-b]pyridin-5-yl}-6,7,8,9-tetrahydro-5H-benzo[7]annulen-7-yl]-2-oxa-5-azabicyclo[2.2.1]heptane], the figure is less than 100 nM.

In general, IC50 refers to the midpoint of a concentration-inhibition curve.
